Experiment [1] has as its system S. aureus ATCC 25923. In words: microbe, parasite or virus in culture. From the text: (§1) Clinical S. aureus strains were collected from patients with atopic dermatitis during their visits to the Outpatient Clinic and hospitalization in the Department of Dermatology, Venereology and Allergology at Medical University of Gdańsk (following the approval from the ethics committee, Approval Number NKBBN/242–477/2014). Reference strains of S. aureus ATCC 25923, S. aureus ATCC 33591, S. aureus ATCC 9144, and S. aureus ATCC 12598 were obtained from the American Type Culture Collection. All the strains were stored at − 80 °C in Roti®-Store cryo vials (Carl Roth GmbH, Karlsruhe, Germany) and before the tests were transferred into fresh Mueller–Hinton Medium (BioMaxima, Lublin, Poland) and incubated for 24 h at 37 °C. Subsequently, each bacterial inoculum was seeded on Mueller–Hinton agar plates (BioMaxima) and incubated again for 24 h. The cultures prepared in this way were used in further antimicrobial assays. Minimum inhibitory concentrations (MICs) were determined according to the Clinical and Laboratory Standards Institute recommendations. […] The experiments were conducted on 96-well microtiter plates, with a final volume of 100 μL. Additionally, in the case of daptomycin, the medium was supplemented with Ca^2+ (50 mg/L). Cell densities were adjusted spectrophotometrically (Multiskan™ GO Microplate Spectrophotometer, Thermo Scientific) at 600 nm. The MICs were taken as the lowest drug concentration at which a visible growth of the microorganisms was inhibited. Minimum biofilm eliminating concentrations (MBECs) were determined on 96-well flat-bottomed microtiter polystyrene plates with resazurin (7-hydroxy-3H-phenoxazin-3-one 10-oxide sodium salt) as a cell viability reagent. To do this, the plates were filled with 100 μL of the initial inoculums of bacteria (0.5 × 10^7 CFU/mL) in the Mueller–Hinton broth and incubated for 24 h at 37 °C. […] After 24 h of incubation, 20 μL of resazurin (4 mg/mL) was added to each well and the MBEC values were read. Minimum biofilm inhibitory concentrations (MBICs) were also determined on 96-well flat-bottomed microtiter polystyrene plates as described previously. To do this, 50 μL of the compounds in the concentration range, diluted MHB, were prepared. Subsequently, the 50 μL of the staphylococcal inoculums were added to reach the same density of bacteria as that in the MBEC assay. After 24 h of incubation at 37 °C, the wells were rinsed three times with PBS and the fresh medium (100 μL) with resazurin (0.6 mg/mL) was added. Then, after 1 h of incubation, MBICs were read. […] All experiments were conducted in triplicate.
(§2) Formation of the biofilm inside the PDMS flow chambers was performed using three peristaltic pumps working simultaneously (LP-pump, Kamush, Lipopharm, Poland) and sterile Tygon® 3350 silicone hoses (2.4 × 0.8 × 0.8 mm) with a length of 30 and 50 cm for inlet and outlet, respectively. Bacterial suspensions were prepared (0.5 × 10^7 CFU/mL) in sterile 50-mL test tubes, which were placed in a heating block at 37 °C. Before experiments, all channels were assessed for tightness and sterilized using a 70% 2-propanol solution (10 min, flow rate 1 mL/min) and rinsed with sterile PBS solution (10 min, flow 0.1 mL/min). The formation of biofilm inside the channels was divided into three stages: (1) adhesion—at this stage S. aureus suspensions were passed through the channels for 4 h at a flow rate of 0.1 mL/min; (2) rinsing—the previously used hoses were replaced with new sterile ones, and the channels were rinsed with sterile PBS solution for 10 min at a flow rate of 0.1 mL/min; (3) biofilm growth—after flushing the channels, the silicone hoses were placed in tubes with MHB medium, which was passed through the channels for 24 h at a flow rate of 0.1 mL/min. All experiments included growth and sterility controls.
(§3) This assay was conducted also on the S. aureus ATCC 25923 and S. aureus 33,591 (MRSA) strains.

The subject of experiment [2] is S. aureus ATCC 33591 (MRSA). Put plainly: microbe, parasite or virus in culture.
Description: as §1, §2, §3

The subject of experiment [3] is S. aureus clinical strain 004N (MRSA). Also on record: method as in earlier work. Conditions: clinical isolate 004N (MRSA), nasal swab; cited from earlier work.
For experiment [4], the system named is S. aureus clinical strain 005S. The arrangement: method as in earlier work. The settings on record: clinical isolate 005S, skin; cited from earlier work.
Experiment [5] relates to S. aureus clinical strain 015N (MRSA). The arrangement: method as in earlier work. The settings on record: clinical isolate 015N (MRSA), nasal swab; cited from earlier work.
Experiment [6] has as its system S. aureus clinical strain 030N. The arrangement: method as in earlier work. The settings on record: clinical isolate 030N, nasal swab; cited from earlier work.
In experiment [7] the test system is S. aureus clinical strain 031S. Also on record: method as in earlier work. The settings on record: clinical isolate 031S, skin; cited from earlier work.
The test system of experiment [8] is S. aureus clinical strain 043SC (MRSA). The arrangement: method as in earlier work. The settings on record: clinical isolate 043SC (MRSA), skin of patient with furuncle folliculitis; cited from earlier work.
Experiment [9] has as its system S. aureus clinical strain 051N (MRSA). The arrangement: method as in earlier work. Conditions: clinical isolate 051N (MRSA), nasal swab; cited from earlier work.
Experiment [10] has as its system S. aureus clinical strain 060S. The arrangement: method as in earlier work. Conditions: clinical isolate 060S, skin; cited from earlier work.
Experiment [11] has as its system S. aureus clinical strain 009S. The arrangement: method as in earlier work. The settings on record: clinical isolate 009S, skin; cited from earlier work.
The mark [12] stands for this setting: S. aureus 25923 biofilm treated under flow with Retro-Omiganan (half MBEC) for 24 h.
[13] abbreviates: S. aureus 25923 biofilm treated under flow with Retro-Omiganan (half MBEC) for 48 h.
The mark [14] stands for this setting: S. aureus 25923 biofilm treated under flow with Retro-Omiganan (half MBEC) for 72 h.
[15] abbreviates: Staphylococcus aureus, ATCC25923, 0 h.
Where [16] appears, read: Staphylococcus aureus, ATCC25923, 24 h.
[17] abbreviates: Staphylococcus aureus, ATCC25923, 48 h.
The mark [18] stands for this setting: Staphylococcus aureus, ATCC25923, 72 h.
The mark [19] stands for this setting: S. aureus ATCC 33591 (MRSA) biofilm treated under flow with Retro-Omiganan (half MBEC) for 48 h.

≈ marks a conversion by molar mass, not a printed value.

Take `CC1(C)S[C@@H]2[C@H](NC(=O)[C@H](N)c3ccccc3)C(=O)N2[C@H]1C(=O)O` [Ampicillin]: the MIC in experiment [1] (setting [12]), in experiment [1] (setting [13]), in experiment [1] (setting [14]), in experiment [1] (setting [15]), in [1] (setting [16]) and in [1] (setting [17]) was 0.5 mg/L (≈ 1.43 µM) each time. In addition, the MIC in experiment [1] (setting [18]) is 0.5 mg/L (≈ 1.43 µM); in [2] (S. aureus ATCC 33591 (MRSA) biofilm treated under flow with Retro-Omiganan (half MBEC) for 24 h), over 128 mg/L; in [2] (setting [19]), over 128 mg/L; in [2] (S. aureus ATCC 33591 (MRSA) biofilm treated under flow with Retro-Omiganan (half MBEC) for 72 h) it was over 128 mg/L; in experiment [2] (Staphylococcus aureus, 0 h), over 128 mg/L; in [2] (Staphylococcus aureus, 24 h), over 128 mg/L. Further, the MIC was over 128 mg/L in [2] (Staphylococcus aureus, 48 h) and over 128 mg/L in experiment [2] (Staphylococcus aureus, 72 h). The “Antimicrobial susceptibility (MIC)” value is 0.5 mg/L in experiment [3]; 8 mg/L in experiment [4]; 16 mg/L in experiment [5]; 0.5 mg/L in [6]; 0.5 mg/L in [7]; 32 mg/L in experiment [8]. In addition, the “Antimicrobial susceptibility (MIC)” value in experiment [9] and in experiment [10] was 0.25 mg/L throughout.

Consider `CCCCCCCCCC(=O)N[C@@H](Cc1c[nH]c2ccccc12)C(=O)N[C@H](CC(N)=O)C(=O)N[C@@H](CC(=O)O)C(=O)N[C@@H]1C(=O)NCC(=O)N[C@@H](CCCN)C(=O)N[C@@H](CC(=O)O)C(=O)N[C@H](C)C(=O)N[C@@H](CC(=O)O)C(=O)NCC(=O)N[C@H](CO)C(=O)N[C@@H]([C@H](C)CC(=O)O)C(=O)N[C@@H](CC(=O)c2ccccc2N)C(=O)O[C@@H]1C` [Daptomycin], for which the MIC worked out at 2 mg/L (≈ 1.23 µM) in [1] (Staphylococcus aureus, ATCC25923, 0 h, S. aureus 25923, time 0 h (baseline, before peptide exposure)); 2 mg/L (≈ 1.23 µM) in experiment [1] (Staphylococcus aureus, ATCC25923, 24 h, S. aureus 25923 biofilm treated under flow with Omiganan (half MBEC) for 24 h); 1 mg/L (≈ 0.617 µM) in experiment [1] (Staphylococcus aureus, ATCC25923, 24 h, S. aureus 25923 biofilm treated under flow with Retro-Omiganan (half MBEC) for 24 h); 2 mg/L (≈ 1.23 µM) in experiment [1] (Staphylococcus aureus, ATCC25923, 48 h, S. aureus 25923 biofilm treated under flow with Omiganan (half MBEC) for 48 h); 1 mg/L (≈ 0.617 µM) in [1] (Staphylococcus aureus, ATCC25923, 48 h, S. aureus 25923 biofilm treated under flow with Retro-Omiganan (half MBEC) for 48 h); 2 mg/L (≈ 1.23 µM) in experiment [1] (Staphylococcus aureus, ATCC25923, 72 h, S. aureus 25923 biofilm treated under flow with Omiganan (half MBEC) for 72 h). The MIC amounted to 1 mg/L (≈ 0.617 µM) in [1] (Staphylococcus aureus, ATCC25923, 72 h, S. aureus 25923 biofilm treated under flow with Retro-Omiganan (half MBEC) for 72 h); 1 mg/L (≈ 0.617 µM) in experiment [2] (setting [19]); 2 mg/L (≈ 1.23 µM) in experiment [2] (S. aureus ATCC 33591 (MRSA), time 0 h (baseline, before peptide exposure)); 2 mg/L (≈ 1.23 µM) in experiment [2] (Staphylococcus aureus, ATCC33591|MRSA, 0 h, S. aureus ATCC 33591 (MRSA), time 0 h (baseline, before peptide exposure)); 2 mg/L (≈ 1.23 µM) in experiment [2] (Staphylococcus aureus, ATCC33591|MRSA, 24 h, S. aureus ATCC 33591 (MRSA) biofilm treated under flow with Omiganan (half MBEC) for 24 h); 2 mg/L (≈ 1.23 µM) in [2] (Staphylococcus aureus, ATCC33591|MRSA, 24 h, S. aureus ATCC 33591 (MRSA) biofilm treated under flow with Retro-Omiganan (half MBEC) for 24 h). Moreover, the MIC in experiment [2] (Staphylococcus aureus, ATCC33591|MRSA, 48 h, S. aureus ATCC 33591 (MRSA) biofilm treated under flow with Omiganan (half MBEC) for 48 h) worked out at 2 mg/L (≈ 1.23 µM); in experiment [2] (Staphylococcus aureus, ATCC33591|MRSA, 48 h, S. aureus ATCC 33591 (MRSA) biofilm treated under flow with Retro-Omiganan (half MBEC) for 48 h) it was 1 mg/L (≈ 0.617 µM); in experiment [2] (Staphylococcus aureus, ATCC33591|MRSA, 72 h, S. aureus ATCC 33591 (MRSA) biofilm treated under flow with Omiganan (half MBEC) for 72 h), 2 mg/L (≈ 1.23 µM); in experiment [2] (Staphylococcus aureus, ATCC33591|MRSA, 72 h, S. aureus ATCC 33591 (MRSA) biofilm treated under flow with Retro-Omiganan (half MBEC) for 72 h) it was 1 mg/L (≈ 0.617 µM). Also, the “Antimicrobial susceptibility (MIC)” value in [3] was 2 mg/L; in experiment [4] it was 4 mg/L; in experiment [11] it was 0.5 mg/L; in experiment [5], 2 mg/L; in [6], 0.125 mg/L; in [7], 0.125 mg/L. For the same molecule, the “Antimicrobial susceptibility (MIC)” value is 1 mg/L in experiment [8], 2 mg/L in experiment [9] and 0.125 mg/L in [10].

With `CC[C@H]1OC(=O)[C@H](C)[C@@H](O[C@H]2C[C@@](C)(OC)[C@@H](O)[C@H](C)O2)[C@H](C)[C@@H](O[C@@H]2O[C@H](C)C[C@H](N(C)C)[C@H]2O)[C@](C)(O)C[C@@H](C)C(=O)[C@H](C)[C@@H](O)[C@]1(C)O` [Erythromycin], the MIC in experiment [1] (setting [12]), in experiment [1] (setting [13]), in [1] (setting [14]), in experiment [1] (setting [15]), in experiment [1] (setting [16]) and in experiment [1] (setting [17]) was at most 0.25 mg/L each time. This molecule also returned an MIC in [1] (setting [18]) of at most 0.25 mg/L. Further, the “Antimicrobial susceptibility (MIC)” value in [5] was 32 mg/L; in [6] it was 0.25 mg/L; in experiment [8] it was over 512 mg/L.

These data come from article PMC12055641, “The Study of Antistaphylococcal Potential of Omiganan and Retro-Omiganan Under Flow Conditions” (Probiotics and Antimicrobial Proteins, 2024).
